Key:
fatty streak lesions = assay: Fatty streak lesions in apo E deficient mice; assay type: in vivo; settings: 1.0 mg/ml in drinking water, 5 weeks, FIG. 9
Method: Apo E deficient mice were purchased from Jackson Laboratories (Bar Harbor, Me.). The mice were 5 weeks old at the time of the experiments. The animals were maintained on a chow diet containing 4% fat, obtained from Ralston-Purina (St. Louis, Mo.). One group (n=10) was given in their drinking water 1.0 mg/ml of 1,2-dimyristoyl-sn-glycero-3-phosphocholine (1,2-ditetradecanoyl-sn-glycero-3-phosphocholine) (shown as DGP on the figure, approximately 99% pure, catalog # P 7331, Sigma Chemical Company, St. Louis, Mo.). […] After 5 weeks of treatment, the animals were sacrificed and hearts were harvested and processed according to the methods described by Qiao et al. (1994) Arterioscl Thromb, 14: 1480-1497). In brief, 10 μm thick cryosections were stained with Oil red 0 and hematoxylin and counterstained with fast green and examined by light microscopy for the identification of atheromatous lesions. Lesion size was measured using a 1.0 cm optical grid with 20×20 grid lines. Under 10× magnification, each square corresponded to 1/400 mm^2 (or 2500 μm^2). A square with lipophilic stain was counted as lesion if the visually observed stain covered at least 1/8th of the square.

lesions = assay: Lesion regression in 10 month old apo E deficient mice; assay type: in vivo; settings: 1.0 mg/ml in drinking water for five weeks after 10 months on chow, FIG. 10
Method: Apo E deficient mice were purchased from Jackson Laboratories (Bar Harbor, Me.). The mice were maintained on a chow diet containing 4% fat, obtained from Ralston-Purina (St. Louis, Mo.) for 10 months at which time one group (n=5) were sacrificed and lesions determined. A second group (n=8) received 1.0 mg/ml of synthetic 1,2-ditetradecanoyl-sn-glycero-3-phosphorylcholine (DGP, approximately 99% pure, catalog # P 7331, Sigma Chemical Company, St. Louis, Mo.) in their drinking water for another five weeks. […] After 5 weeks of treatment, the animals were sacrificed. The hearts and blood vessels from the three groups were harvested and processed as previously reported (Qiao 1994) to determine lesion area.

[1] = Lipoprotein cholesterol levels (FPLC) in apo E deficient mice; assay type: in vivo; settings: 2.0 mg/ml in drinking water, 24 and 48 hrs, FIG. 6
Method: Apo E deficient mice were purchased from Jackson Laboratories (Bar Harbor, Me.). The mice were 5 weeks old at the time of the experiments. The animals were maintained on a chow diet containing 4% fat, obtained from Ralston-Purina (St. Louis, Mo.). Synthetic 1,2-ditetradecanoyl-sn-glycero-3-phosphocholine (shown in the figure as circles at 24 h and as triangles at 48 h and abbreviated as DGP; 99+% purity, catalog # P 2663, Lot # 17H8362, Sigma Chemical Company, St. Louis Mo.) was added at 2.0 mg/ml to the drinking water of one group of apo E deficient mice (n=5). […] After 24 and 48 hrs blood was collected from the retroorbital sinus under mild anesthesia into heparinized tubes under an approved protocol of the UCLA Animal Research Committee. Plasma was separated and was fractionated using fast protein liquid chromatography (FPLC). Cholesterol content of the fractions was determined using a kit (Infinity reagent) obtained from Sigma Chemical Company.

[2] = system: Human artery wall cell cocultures; assay: HDL protective capacity and LDL susceptibility to oxidation in human artery wall cell cocultures; assay type: in vivo, apo E deficient mice; settings: 18 hrs, FIG. 8
Method: Plasma fractions obtained as described above were pooled in the region containing LDL and the region containing HDL. Human artery wall cell cocultures were prepared as reported previously (Navab et al. (1997) J Clin Invest., 99: 2005-2019) and used to determine the extent of LDL oxidation as judged by the level of monocyte chemotactic activity generated by oxidized LDL. As the assay controls, to some wells containing the artery wall cocultures was added a standard human LDL (h LDL) at 200 μg LDL protein per ml. To other wells was added h LDL+human HDL (h HDL) at 350 μg HDL protein per ml. The protective capacity of HDL obtained from apo E deficient mice was then tested. To some wells was added standard human LDL (Std. h LDL) at 200 μg LDL protein per ml plus 50 μg of HDL cholesterol obtained from the mice that had received drinking water without additions (Std. h LDL+Cont. E null HDL). To other wells in addition to human LDL, HDL (at 50 μg cholesterol/ml) obtained from mice given drinking water containing 2.0 mg per ml of 1,2-dimyristoyl-sn-glycero-3-phosphocholine (1,2-ditetradecanoyl-sn-glycero-3-phosphocholine) (Std. h LDL+DGP HDL) was added and incubated for 18 hrs. LDL susceptibility to oxidation was additionally determined. […] The values are mean±SD of the number of monocytes counted in 9 high power fields from quadruple wells. […]

paraoxonase-1 (PON1) = assay: Paraoxonase activity of plasma fractions of apo E deficient mice; assay type: in vivo; settings: 2.0 mg/ml in drinking water, FIG. 7
Method: Plasma fractions obtained as described in above were analyzed for paraoxonase activity using paraoxon a substrate as reported by Watson et al. (1995) J Clin Invest., 96: 2882-2891). The control samples are shown as diamonds in the figure.

human MKP-1 = assay: Western blot of MKP-1 protein in Ox-PAPC treated HAECs after oligonucleotide transfection; assay type: cell-based; settings: oligonucleotide 100 nM, 18 h, then Ox-PAPC 50 μg/ml 4 h, FIG. 3A, 3B
Method: HAECs were transfected with either ‘antisense’ or ‘sense’ phosphorothioate oligonucleotides (100 nM) to human MKP-1. Eighteen hours later, control and transfected cells were either left untreated or treated with Ox-PAPC (50 μg/ml) for an additional four hours.

[3] = system: human aortic endothelial cells; assay: Monocyte chemotactic activity of supernatants of Ox-PAPC treated HAECs; assay type: cell-based; settings: oligonucleotide 100 nM, 18 h, then Ox-PAPC 50 μg/ml 4 h, FIG. 5A-5C
Method: Human aortic endothelial cells were transfected with either ‘antisense’ or ‘sense’ phosphorothioate oligonucleotides (100 nM) to human MKP-1. Eighteen hours later, control and transfected cells were either left untreated or treated with Ox-PAPC (50 μg/ml) for an additional four hours. Following the treatments, cell supernatants were collected and analyzed for monocyte chemotactic activity.

[4] = system: human aortic endothelial cells; assay: Monocyte adhesion assay with supernatants of Ox-PAPC treated HAECs; assay type: cell-based; settings: oligonucleotide 100 nM, 18 h, then Ox-PAPC 50 μg/ml 4 h, FIG. 4
Method: Human aortic endothelial cells were transfected with either ‘antisense’ or ‘sense’ phosphorothioate oligonucleotides (100 nM) to human MKP-1. Eighteen hours later, control and transfected cells were either left untreated or treated with Ox-PAPC (50 μg/ml) for an additional four hours. Following the treatments, cell supernatants were collected and analyzed in a monocyte adhesion assay.

influenza A = settings: injected, mice; cited from earlier work

## CCCCCCCCCCCCCC(=O)OC[C@H](COP(=O)([O-])OCC[N+](C)(C)C)OC(=O)CCCCCCCCCCCCC [1,2-dimyristoyl-sn-glycero-3-phosphocholine]
Fatty streak lesions
  reduction in atherosclerosis: 84.1%
lesions
  lesion area change: dramatic lesion regression
[1]
  high density lipoprotein (HDL) levels: dramatic increase
  very low density lipoproteins (VLDL) or low density lipoproteins (LDL): without a significant change
[2]; HDL from mice given 2.0 mg per ml in drinking water, 50 μg cholesterol/ml
  HDL protective capacity (protecting LDL against oxidation): more effective in protecting LDL against oxidation
[2]; LDL from mice given 2.0 mg per ml in drinking water, 100 μg LDL cholesterol per ml
  LDL susceptibility to oxidation: more resistant to oxidation by artery walls
paraoxonase-1 (PON1)
  content of paraoxonase-1 (PON1) associated with HDL: dramatic increase

## antisense oligonucleotides: antisense phosphorothioate oligonucleotide to human MKP-1; 5′-GGAACTCAGTGGAACTCAGG-3′ (SEQ ID NO:2) (antisense GGAACTCAGTGGAACTCAGG; all phosphorothioate, sugars by position and methylation of C not given here)
Human MKP-1
  Ox-PAPC-induced MKP-1 protein expression: prevent the accumulation of MKP-1 protein
[3]
  monocyte chemotactic activity / monocyte chemotaxis: did not promote monocyte chemotaxis
[4]
  Ox-PAPC induction of monocyte adherence: did not promote monocyte adhesion

## apo A-I: apo A-I, injected in mice with influenza A in a copending application
Influenza A
  signs and symptoms of influenza A: greatly ameliorated
